Experimental data as given in EP4775577A1, “RAS INHIBITOR” (Tyligand Bioscience (Shanghai) Limited, priority 2023, dated 2025).
Where two headings read alike, the source gives them in different places.

Tests used:
[1] = system: KRAS G12V mutant NCI-H727 cells; assay: Proliferation inhibition of NCI-H727 cells, 3D CellTiter-Glo assay (Method B); assay type: cell-based, human; conditions: Homo sapiens, NCI-H727, 120 h, 3D culture with 0.65% methylcellulose, 5 days, CTG
Description: NCI-H727 cells (Nanjing Kebai Biotechnology Co., Ltd., catalog number CBP60182, adherent, culture medium RPMI-1640+10%FBS (GIBCO, Cat#10091-148)) were cultured at 37°C, 5% CO2, and 95% humidity.
3D cell viability assay: Cells in the logarithmic growth phase were harvested and counted using a platelet counter. Cell viability was assessed using the trypan blue exclusion method to ensure a viability of over 90%. The 3D cell culture medium was prepared by adding 1% MC (methylcellulose, Sigma, Cat#M0512) to RPMI-1640 medium and 10% FBS. The cell concentration was adjusted to approximately 25,000 cells/mL using the 3D medium, and the methylcellulose (MC) content was set to 0.65%. Then, 80 µL of cell suspension was added to each 96-well clear, flat-bottomed, black-walled plate (Greiner, Cat# 655096). The cells in the 96-well plates were cultured overnight at 37°C and 5% CO2.
Drug preparation for IC50 assay: A 5-fold drug solution was prepared using culture medium. 20 µL of the drug solution was added to each well of a 96-well plate seeded with cells to achieve a working concentration of up to 10 µM, with a 3× dilution, and 9 concentrations. 2 replicate wells for each drug concentration were set. The cells in the drug-treated 96-well plates were cultured at 37°C and 5% CO2 for additional 5 days, then CTG assay (CellTiter-Glo® Luminescent Cell Viability Assay (Promega, Cat#G7573)) were performed.
The cell plate was equilibrated to room temperature for 30 minutes and the CTG reagent was thawed. 50 µL of CTG solution was added to each well for detection and the plate was shaken on an orbital shaker for 5 minutes to lyse the cells. The cell plate was then placed at room temperature for 25 minutes to stabilize the cryo-luminescence signal, and the cryo-luminescence value was read (EnVision® multi-plate reader, PerkinElmer#2105).
(§1) Data was analyzed using GraphPad Prism software. The dose-response-inhibition equation was used to fit the data to obtain the dose-response curve, and the IC50 value (nM) was calculated accordingly. [formula]

[2] = system: KRAS G12D mutant AGS cells; assay: Proliferation inhibition of AGS cells, CellTiter-Glo assay; assay type: cell-based, human; conditions: Homo sapiens, AGS, 72 h, 3 days, CTG; read-out: AGS IC50/nM
Description: AGS cells (Nanjing Kebai Biotechnology Co., Ltd., catalog number CBP60476, adherent, culture medium (F12K Nutrient Mixture+10% FBS (GIBCO, Cat#10091-148) were cultured at 37°C, 5% CO2, and 95% humidity at a density of 1500 cells/well. Cells in the logarithmic growth phase were harvested and counted using a Countstar automated cell counter based on the classic trypan blue staining method to ensure cell viability was above 90%. The cell concentration was adjusted, and 80 µL of cell suspension was added to each 96-well clear flat-bottomed, black-walled plate (Greiner, Cat# 655090). The cells in the 96-well plates were then cultured at 37°C and 5% CO2.
Drug preparation for IC50 assay: A 5-fold drug solution was prepared using culture medium. 20 µL of the drug solution was added to each well of a 96-well plate seeded with cells to achieve a working concentration of up to 10 µM, with a 3 × dilution, and a total of 9 concentrations. 2 replicate wells for each drug concentration were set. The cells in the drug-treated 96-well plates were cultured at 37°C and 5% CO2 for additional 3 days and then CTG assay were performed.
The cell plate was equilibrated to room temperature for 30 minutes and the CTG reagent (CellTiter-Glo® Luminescent Cell Viability Assay (Promega, Cat# G7573)) was thawed. 50 µL of CTG solution was added to each well and the plate was shaken on an orbital shaker for 2 minutes to lyse the cells. The cell plate was placed at room temperature for 10 minutes to stabilize the cryo-luminescence signal and the cryo-luminescence value was read (EnVision® Multifunctional microplate reader, PerkinElmer #2105).
as §1

[3] = Method B, read-out: NCI-H727 IC50/nM

IC50 ([1]; read-out: NCI-H727 IC50/nM, Method B) [nM] | IC50 [2] [nM] | IC50 [1, 3] [nM] | SMILES
5 | 13.2 |  | CN1CC/C(=C\F)[C@](C)(COc2nc(N3CCOC[C@@](C)(O)C3)c3cc(C(F)(F)F)c(-c4ccc(F)c5sc(N)c(C#N)c45)c(F)c3n2)C1 [Example 16]
 | 1.75 | 6.3 | [2H]C([2H])([2H])N1CC[C@H](C(F)F)[C@](C)(COc2nc(N3CCCn4nc(C(=O)N(C)C)cc4C3)c3cc(C(F)(F)F)c(-c4c(F)ccc5sc(N)c(C#N)c45)c(F)c3n2)C1 [Example 67, 5-(7-(2-Amino-3-cyano-5-fluorobenzo[b]thiophene-4-yl)-2-(((3S,4S)-4-(difluoromethyl)-3-methyl-1-(methyl-d3)piperidine-3-yl)methoxy)-8-fluoro-6-(trifluoromethyl)quinazoline-4-yl)-N,N-dimethyl-5,6,7,8-tetrahydro-4H-pyrazolo[1,5-a][1,4]diazepine-2-formamide]
 | 84.7 | 48.5 | [2H]C([2H])([2H])N1CC[C@H](C(F)F)[C@](C)(COc2nc(N3CCOC[C@@](C)(O)C3)c3cc(C#N)c(-c4cccc5sc(N)c(C#N)c45)c(F)c3n2)C1 [Example 91]
 | 10.5 | 36.1 | [2H]C([2H])([2H])N1CC[C@H](C(F)F)[C@](C)(COc2nc(N3CCCn4nc(C(=O)N(C)C)cc4C3)c3cc([N+](=O)[O-])c(-c4cccc5sc(N)c(C#N)c45)c(F)c3n2)C1 [Example 95, 5-(7-(2-Amino-3-cyanobenzo[b]thiophene-4-yl)-2-(((3S,4S)-4-(difluoromethyl)-3-methyl-1-(methyl-d3)piperidine-3-yl)methoxy)-8-fluoro-6-nitroquinazoline-4-yl)-N,N-dimethyl-5,6,7,8-tetrahydro-4H-pyrazolo[1,5-a][1,4]diazepine-2-formamide]
 | 13.1 | 2.4 | [2H]C([2H])([2H])N1CCC(C(F)F)C(C)(COc2nc(N3CCOCC(C)(O)C3)c3cc(C(F)(F)F)c(-c4ccc(F)c5sc(N)c(C#N)c45)c(F)c3n2)C1 (stereo not shown) [Example 99]

Second part, the compound before the results:

SMILES | IC50 ([1]; read-out: NCI-H727 IC50/nM, Method B) [nM] | IC50 [2] [nM] | IC50 [1, 3] [nM]
[2H]C([2H])([2H])N1CC/C(=C\F)[C@](C)(COc2nc(N3CCCn4nc(C(=O)N(C)C)cc4C3)c3cc(C(F)(F)F)c(-c4c(F)ccc5sc(N)c(C#N)c45)c(F)c3n2)C1 [Example 68, 5-(7-(2-amino-3-cyano-5-fluorobenzo[b]thiophene-4-yl)-8-fluoro-2-(((S,E)-4-(fluoromethylene)-3-methyl-1-(methyl-d3)piperidine-3-yl)methoxy)-6-(trifluoromethyl)quinazoline-4-yl)-N,N-dimethyl-5,6,7,8-tetrahydro-4H-pyrazolo[1,5-a][1,4]diazepine-2-formamide] |  | 1.9 | 6.4
[2H]C([2H])([2H])N1CC[C@H](C(F)F)[C@](C)(COc2nc(N3CCOC[C@@](C)(O)C3)c3cc(Cl)c(-c4cccc5sc(N)c(C#N)c45)c(F)c3n2)C1 [Example 83] |  | 38.2 | 20.2
[2H]C([2H])([2H])N1CC/C(=C\F)[C@](C)(COc2nc(N3CCOC[C@@](C)(O)C3)c3cc(Cl)c(-c4cccc5sc(N)c(C#N)c45)c(F)c3n2)C1 [Example 84, 2-Amino-4-(6-chloro-8-fluoro-2-(((S,E)-4-(fluoromethylene)-3-methyl-1-(methyl-d3)piperidine-3-yl)methoxy)-4-((S)-6-hydroxy-6-methyl-1,4-oxazacycloheptane-4-yl)quinazoline-7-yl)benzo[b]thiophene-3-carbonitrile] |  | 59 | 77.7
[2H]C([2H])([2H])N1CC/C(=C\F)[C@](C)(COc2nc(N3CCCn4nc(C(=O)N(C)C)cc4C3)c3cc([N+](=O)[O-])c(-c4cccc5sc(N)c(C#N)c45)c(F)c3n2)C1 [Example 98] |  | 15.8 | 27.1
CN1CC/C(=C\F)[C@](C)(COc2nc(N3CCCn4nc(C(=O)N(C)C)cc4C3)c3cc(C(F)F)c(-c4cccc5sc(N)c(C#N)c45)c(F)c3n2)C1 [Example 100] |  | 20 | 47.7
CN1CCC(=CF)C(C)(COc2nc(N3CCC(C#N)C(O)C3)c3cc(C(F)(F)F)c(-c4cccc5sc(N)c(C#N)c45)c(F)c3n2)C1 (stereo not shown) [Example 105] |  | 338 | 26.9
